Laboratory results reported in the PolyMetriX glass transition set.
± gives the standard deviation of the reports.

SMILES	glass transition temperature
*CC(*)OCCC (repeat unit) [Poly(propyl vinyl ether)]	-49 °C

Remark: another data set of the same source

SMILES	glass transition temperature
*CC(*)OC(=O)C=Cc1ccccc1 (repeat unit) [poly(vinyl cinnamate)]	77 °C

Remark: another data set of the same source

SMILES	glass transition temperature
*c1cc(N2C(=O)c3ccc(-c4ccc5c(c4)C(=O)N(*)C5=O)cc3C2=O)ccc1OCC(F)(F)C(F)(F)C(F)(F)C(F)(F)C(F)(F)C(F)(F)C(F)(F)F (repeat unit)	250.00 °C
*Oc1cccc(C(C)(C)c2ccc(Oc3cccc4c3C(=O)N(c3ccc(Oc5ccc(N6C(=O)c7cccc(*)c7C6=O)cc5)cc3)C4=O)cc2)c1 (repeat unit)	235.00 °C
*Oc1cccc(Sc2ccc(Oc3cccc4c3C(=O)N(c3ccc(Oc5cccc(Oc6ccc(N7C(=O)c8cccc(*)c8C7=O)cc6)c5)cc3)C4=O)cc2)c1 (repeat unit)	230.00 °C
*c1ccc(-c2ccc(N3C(=O)c4ccc(-c5ccc6c(c5)C(=O)N(*)C6=O)cc4C3=O)cc2OC(F)(F)F)c(OC(F)(F)F)c1 (repeat unit)	335.00 °C
*Oc1cccc(Oc2ccc(Oc3cccc4c3C(=O)N(c3ccc(Oc5cccc(Oc6ccc(N7C(=O)c8cccc(*)c8C7=O)cc6)c5)cc3)C4=O)cc2)c1 (repeat unit)	198.00 °C
*Oc1cccc2c1C(=O)N(c1cccc(C(=O)c3cccc(N4C(=O)c5cccc(*)c5C4=O)c3)c1)C2=O (repeat unit)	234.00 °C

Remark: another data set of the same source

SMILES	glass transition temperature
*c1ccc(-c2ccc(-c3cc4c5c(c(*)cc6c5c3C(=O)N(CC(CCCCCCCC)CCCCCCCCCC)C6=O)C(=O)N(CC(CCCCCCCC)CCCCCCCCCC)C4=O)s2)s1 (repeat unit)	74.00 °C
*c1ccc(-c2ccc(OCCCCCCCC)c(-c3cc(*)ccc3OCCCCCCCC)c2)cc1 (repeat unit)	87.00 °C
*C=Cc1cc(OC)c(C=Cc2cc(OC)c(*)cc2OC)cc1OCC(CC)CCCC (repeat unit)	113.00 °C
*c1ccc(-c2sc(-c3c(F)c(F)c(-c4cc(CC(CCCCCCCC)CCCCCCCCCC)c(-c5ccc(*)s5)s4)c4nsnc34)cc2CC(CCCCCCCC)CCCCCCCCCC)s1 (repeat unit)	28.00 °C
*c1ccc2c(c1)C(CCCCCCCCCCCC)(CCCCCCCCCCCC)c1cc(*)ccc1-2 (repeat unit)	16.00 °C
*c1cc(CCCCCCCCCCCCCC)c(-c2sc(-c3cc4sc(*)cc4s3)cc2CCCCCCCCCCCCCC)s1 (repeat unit)	5.00 °C
*c1ccc(N(c2ccc(-c3ccc4c(c3)C(CCCCCCCC)(CCCCCCCC)c3cc(*)ccc3-4)cc2)c2ccc(C(C)CC)cc2)cc1 (repeat unit)	140.00 °C
*c1ccc(-c2ccc(OCCCCCC)c(-c3cc(*)ccc3OCCCCCC)c2)cc1 (repeat unit)	117.00 °C
*c1cc2c(OCC(CC)CCCC)c3sc(-c4sc(*)c5c(F)c(C(=O)OCC(CC)CCCC)sc45)cc3c(OCC(CC)CCCC)c2s1 (repeat unit)	40.00 °C
*c1ccc2c(c1)C(CCCCCCCC)(CCCCCCCC)c1cc(-c3sc(-c4ccc(-c5cc(CCCCCC)c(*)s5)c5nsnc45)cc3CCCCCC)ccc1-2 (repeat unit)	79.00 °C

Remark: another data set of the same source

SMILES	glass transition temperature
*CC(*)OC(=O)CCC (repeat unit) [Poly(vinyl butyrate) ]	2 ± 4.2 °C
*CC(*)c1ccccc1CC (repeat unit) [Poly(o-ethyl styrene) ]	102 ± 1.4 °C
*CC(*)c1ccc(CO)cc1 (repeat unit) [Poly(p-hydroxymethyl styrene) ]	139 ± 1.4 °C
*Oc1ccc(Oc2ccc(Oc3ccc4c(c3)C(=O)N(CCCCCCN3C(=O)c5ccc(*)cc5C3=O)C4=O)cc2)cc1 (repeat unit) [Polyetherimide 1 ]	126.4 ± 2.1 °C
*c1nc(C(F)(F)F)nc(C(F)(OC(F)(F)C(F)(F)C(F)(F)C(F)(F)C(F)(F)C(F)(F)OC(*)(F)C(F)(F)F)C(F)(F)F)n1 (repeat unit) [Perfluoropolymer 1]	-13.6 ± 0.7 °C
*CC(*)(C)C(=O)OCC(CC)CC (repeat unit) [Poly(2-ethylbutyl methacrylate) ]	10.4 ± 0.7 °C
*CC(*)C(=O)OC(C)CCCCC (repeat unit) [Poly(2-heptyl acrylate) ]	-39 ± 1.4 °C
